Several values for one entry are separate records, joined by “and”; a condition that tells them apart may be missing. Identical values can stand only once.
System: Th17 cells
Test: Th17 polarization, IL-17 by flow cytometry (Figure 1H)
Type: cell-based, mouse
Experimental: Naive CD4^+ T cells were isolated from the spleens of C57BL/6J or CD45.1^+ OT-II mice using the MojoSort Mouse CD4 Naive T Cell Isolation Kit (BioLegend, catalog 480040), following the manufacturer’s protocol. Purified cells were cultured in RPMI-1640 medium supplemented with 10% FBS, 1% penicillin-streptomycin, and 0.1% β-mercaptoethanol (Gibco, catalog 21985023).
T cell polarization was initiated under plate-bound anti-CD3 (2 μg/mL, clone 17A2, BioXCell, catalog BE0002) and soluble anti-CD28 (1 μg/mL, clone 37.51, BioXCell, catalog BE0015-1) stimulation, with the addition of cytokines and neutralizing antibodies specific to each subset. For Th9 cells, these included IL-4 (10 ng/mL, Peprotech, catalog 400-04), TGF-β (1 ng/mL, EPOTO Biotech, catalog HF-2021), anti–IL-12 (5 μg/mL, clone C17.8, BioXCell, catalog BE0051), and anti–IFN-γ (10 μg/mL, clone XMG1.2, BioXCell, catalog BE0055); for Th1 cells, these included IL-12 (10 ng/mL, GenScript, catalog Z03211-50) and anti–IL-4 (5 μg/mL, clone 11B11, BioXCell, catalog BE0045); for Th2 cells, these included IL-4 (50 ng/mL), anti–IFN-γ (20 μg /mL), anti–IL-12 (5 μg/mL), Th17 cells: IL-6 (20 ng/mL, EPOTO Biotech, catalog MF-1006), TGF-β (1 ng/mL), IL-1β (10 ng/mL, Peprotech, catalog AF-211-11B), anti–IFN-γ (10 μg/mL), anti–IL-12 (5 μg/mL), and anti–IL-4 (5 μg/mL); and for Tregs, these included TGF-β (3 ng/mL). […]

anteiso-C15 Leu7 surfactin [EpA]
IL-17 expression under Th17 polarization (EpA 10 μM, individual replicates, n = 4): 31.3 and 30.4 and 30.7 and 33.1 | effect on Th17 polarization (result in words): did not affect

From PMC12867150, “A fungi-derived cyclic peptide enhances Th9-mediated antitumor immunity by targeting ZAP70 and SREBP1” (The Journal of Clinical Investigation, 2025)
